Common to all, as to assay type: cell-based
For one test, the target named is T1, CD74-ROS1 Ba/F3 (Homo sapiens, UniProt P08922).
T1 construct: fused on or other part: P04233 (HLA class II histocompatibility antigen gamma chain)
Nature of the test: Cell proliferation assay, CD74-ROS1 Ba/F3 stable cell line (CellTiter-Glo). To be noted: Ba/F3-CD74-ROS1 wild type cells, 72 hours compound incubation; read-out: Cell Proliferation IC50 CD74-ROS1 Ba/F3. From the text:
Creation of CD74-ROS1 and EML4-ALK Ba/F3 Stable Cell Lines and Cell Proliferation Assays.
The CD74-ROS1 wild-type gene and EML4-ALK wild-type gene (variant 1) were synthesized at GenScript and cloned into pCDH-CMV-MCS-EF1-Puro plasmid (System Biosciences, Inc). Ba/F3-CD74-ROS1 and Ba/F3-EML4-ALK wild type cell lines were generated by infecting Ba/F3 cells with lentivirus containing CD74-ROS1 wide-type and EML4-ALK wild type. Stable cell lines were selected by puromycin treatment, followed by IL-3 withdrawal. 3000 cells were seeded in 384 well white plate overnight before compound treatment. Cell proliferation was measured using CellTiter-Glo luciferase-based ATP detection assay (Promega) following the manufactures's protocol after 72 hours of various concentration of compound incubation. IC50 determinations were performed using GraphPad Prism software (GraphPad, Inc., San Diego, Calif.).
A general note: Cellular ATP, detected with luciferase, serves as a proxy for viable cell number.

A further test deals with T2, EML4-ALK Ba/F3 (Homo sapiens, UniProt Q9UM73).
T2 construct: fused on or other part: Q9HC35 (Echinoderm microtubule-associated protein-like 4)
Nature of the test: Cell proliferation assay, EML4-ALK Ba/F3 stable cell line (CellTiter-Glo). To be noted: Ba/F3-EML4-ALK wild type (variant 1) cells, 72 hours compound incubation; read-out: Cell Proliferation IC50 EML4-ALK Ba/F3. The gist of the method: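 Ba/F3 cells were lentivirally transduced with wild-type CD74-ROS1 or EML4-ALK (variant 1), selected with puromycin and made IL-3-independent. Cells (3000/well) were seeded overnight and then treated with the compounds at various concentrations for 72 h. Proliferation was read by CellTiter-Glo ATP luminescence, and IC50 values were fitted.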

Test [1] has as its system T cell lymphoma Karpas-299 cell line (harboring endogenous NPM-ALK fusion gene). Nature of the test: Cell proliferation assay, Karpas-299 cells (CellTiter-Glo). Conditions: Homo sapiens, 72 hours incubation. As to the method: Cell Proliferation Assays.
Colorectal cell lines KM 12 (harboring endogenous TPM3-TRKA fusion gene) cells were cultured in DMEM medium, supplemented with 10% fetal bovine serum and 100 U/mL of penicillin/streptomycin. 5000 cells were seeded in 384 well white plate for 24 hours before compounds treatment. Cell proliferation was measured using CellTiter-Glo luciferase-based ATP detection assay (Promega) following the manufactures's protocol after 72 hours incubation. IC50 determinations were performed using GraphPad Prism software (GraphPad, Inc., San Diego, Calif.). Alternatively, essential thrombocythemia cell line SET-2 cells (harboring endogenous JAK2 […] point mutation) or T cell lymphoma Karpas-299 cell line (harboring endogenous NPM-ALK fusion gene) were cultured in RPMI medium, supplemented with 10% fetal bovine serum and 100 U/mL of penicillin/streptomycin. 5000 cells were seeded in 384 well white plate for 24 hours before compounds treatment. Cell proliferation was measured using CellTiter-Glo luciferase-based ATP detection assay (Promega) following the manufactures's protocol after 72 hours incubation. IC50 determinations were performed using GraphPad Prism software (GraphPad, Inc., San Diego, Calif.).

Test [2] relates to Colorectal cell lines KM 12 (harboring endogenous TPM3-TRKA fusion gene). The test is described as follows: Cell proliferation assay, KM12 cells (CellTiter-Glo). Conditions: Homo sapiens, 72 hours incubation.
The subject of test [3] is essential thrombocythemia cell line SET-2 cells (harboring endogenous JAK2 point mutation). Nature of the test: Cell proliferation assay, SET-2 cells (CellTiter-Glo). Conditions: Homo sapiens, 72 hours incubation, read-out: Cell Proliferation IC50 SET2. The gist of the method:
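Karpas-299 (NPM-ALK) or SET-2 (JAK2 […]) cells in RPMI with 10% FBS, seeded 24 h before compound addition. Viability read by CellTiter-Glo ATP luminescence after 72 h incubation; IC50 derived from dose–response curves.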

T2 sequence (Q9UM73 whole entry, change not shown, the tested form may be a part): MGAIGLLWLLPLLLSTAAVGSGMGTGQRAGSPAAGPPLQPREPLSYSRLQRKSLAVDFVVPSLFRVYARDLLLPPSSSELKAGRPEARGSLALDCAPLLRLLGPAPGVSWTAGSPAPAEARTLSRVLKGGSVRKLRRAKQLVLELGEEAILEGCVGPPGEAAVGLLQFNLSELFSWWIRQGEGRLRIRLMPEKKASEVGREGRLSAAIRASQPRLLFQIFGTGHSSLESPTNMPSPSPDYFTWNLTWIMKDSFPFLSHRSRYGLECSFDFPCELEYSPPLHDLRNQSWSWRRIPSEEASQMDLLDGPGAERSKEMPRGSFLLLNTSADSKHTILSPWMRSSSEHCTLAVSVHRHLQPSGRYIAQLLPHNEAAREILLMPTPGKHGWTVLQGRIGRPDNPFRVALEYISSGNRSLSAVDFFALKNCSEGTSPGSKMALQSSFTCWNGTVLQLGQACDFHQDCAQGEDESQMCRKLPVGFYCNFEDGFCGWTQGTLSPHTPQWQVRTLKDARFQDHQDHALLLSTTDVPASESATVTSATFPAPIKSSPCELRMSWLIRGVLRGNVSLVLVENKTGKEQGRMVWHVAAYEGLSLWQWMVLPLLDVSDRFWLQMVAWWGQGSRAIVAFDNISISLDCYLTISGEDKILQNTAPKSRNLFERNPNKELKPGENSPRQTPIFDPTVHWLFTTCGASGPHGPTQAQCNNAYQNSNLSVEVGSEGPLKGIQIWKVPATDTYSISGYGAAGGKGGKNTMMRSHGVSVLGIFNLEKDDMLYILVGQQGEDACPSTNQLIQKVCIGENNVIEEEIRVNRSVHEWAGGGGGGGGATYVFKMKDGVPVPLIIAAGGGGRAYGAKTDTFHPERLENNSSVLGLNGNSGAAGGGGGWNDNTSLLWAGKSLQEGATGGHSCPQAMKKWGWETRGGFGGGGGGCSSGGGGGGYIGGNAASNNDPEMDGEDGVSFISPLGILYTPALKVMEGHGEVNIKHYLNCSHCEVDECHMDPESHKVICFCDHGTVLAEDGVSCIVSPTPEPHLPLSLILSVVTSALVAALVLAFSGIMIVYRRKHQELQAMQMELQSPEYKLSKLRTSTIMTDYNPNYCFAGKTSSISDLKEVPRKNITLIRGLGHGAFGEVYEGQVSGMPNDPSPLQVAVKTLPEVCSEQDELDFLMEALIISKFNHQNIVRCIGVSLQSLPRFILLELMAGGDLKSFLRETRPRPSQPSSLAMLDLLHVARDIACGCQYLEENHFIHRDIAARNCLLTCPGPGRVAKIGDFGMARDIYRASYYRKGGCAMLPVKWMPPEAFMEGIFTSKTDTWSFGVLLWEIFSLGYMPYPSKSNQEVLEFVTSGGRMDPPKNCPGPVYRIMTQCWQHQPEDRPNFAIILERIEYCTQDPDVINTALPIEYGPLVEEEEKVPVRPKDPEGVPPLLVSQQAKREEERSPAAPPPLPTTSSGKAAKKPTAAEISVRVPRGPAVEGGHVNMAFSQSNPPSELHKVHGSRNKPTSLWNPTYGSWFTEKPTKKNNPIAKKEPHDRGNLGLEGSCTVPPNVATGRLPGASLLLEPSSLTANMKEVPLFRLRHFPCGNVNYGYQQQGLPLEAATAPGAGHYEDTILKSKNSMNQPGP
T1 sequence (P08922 whole entry, change not shown, the tested form may be a part): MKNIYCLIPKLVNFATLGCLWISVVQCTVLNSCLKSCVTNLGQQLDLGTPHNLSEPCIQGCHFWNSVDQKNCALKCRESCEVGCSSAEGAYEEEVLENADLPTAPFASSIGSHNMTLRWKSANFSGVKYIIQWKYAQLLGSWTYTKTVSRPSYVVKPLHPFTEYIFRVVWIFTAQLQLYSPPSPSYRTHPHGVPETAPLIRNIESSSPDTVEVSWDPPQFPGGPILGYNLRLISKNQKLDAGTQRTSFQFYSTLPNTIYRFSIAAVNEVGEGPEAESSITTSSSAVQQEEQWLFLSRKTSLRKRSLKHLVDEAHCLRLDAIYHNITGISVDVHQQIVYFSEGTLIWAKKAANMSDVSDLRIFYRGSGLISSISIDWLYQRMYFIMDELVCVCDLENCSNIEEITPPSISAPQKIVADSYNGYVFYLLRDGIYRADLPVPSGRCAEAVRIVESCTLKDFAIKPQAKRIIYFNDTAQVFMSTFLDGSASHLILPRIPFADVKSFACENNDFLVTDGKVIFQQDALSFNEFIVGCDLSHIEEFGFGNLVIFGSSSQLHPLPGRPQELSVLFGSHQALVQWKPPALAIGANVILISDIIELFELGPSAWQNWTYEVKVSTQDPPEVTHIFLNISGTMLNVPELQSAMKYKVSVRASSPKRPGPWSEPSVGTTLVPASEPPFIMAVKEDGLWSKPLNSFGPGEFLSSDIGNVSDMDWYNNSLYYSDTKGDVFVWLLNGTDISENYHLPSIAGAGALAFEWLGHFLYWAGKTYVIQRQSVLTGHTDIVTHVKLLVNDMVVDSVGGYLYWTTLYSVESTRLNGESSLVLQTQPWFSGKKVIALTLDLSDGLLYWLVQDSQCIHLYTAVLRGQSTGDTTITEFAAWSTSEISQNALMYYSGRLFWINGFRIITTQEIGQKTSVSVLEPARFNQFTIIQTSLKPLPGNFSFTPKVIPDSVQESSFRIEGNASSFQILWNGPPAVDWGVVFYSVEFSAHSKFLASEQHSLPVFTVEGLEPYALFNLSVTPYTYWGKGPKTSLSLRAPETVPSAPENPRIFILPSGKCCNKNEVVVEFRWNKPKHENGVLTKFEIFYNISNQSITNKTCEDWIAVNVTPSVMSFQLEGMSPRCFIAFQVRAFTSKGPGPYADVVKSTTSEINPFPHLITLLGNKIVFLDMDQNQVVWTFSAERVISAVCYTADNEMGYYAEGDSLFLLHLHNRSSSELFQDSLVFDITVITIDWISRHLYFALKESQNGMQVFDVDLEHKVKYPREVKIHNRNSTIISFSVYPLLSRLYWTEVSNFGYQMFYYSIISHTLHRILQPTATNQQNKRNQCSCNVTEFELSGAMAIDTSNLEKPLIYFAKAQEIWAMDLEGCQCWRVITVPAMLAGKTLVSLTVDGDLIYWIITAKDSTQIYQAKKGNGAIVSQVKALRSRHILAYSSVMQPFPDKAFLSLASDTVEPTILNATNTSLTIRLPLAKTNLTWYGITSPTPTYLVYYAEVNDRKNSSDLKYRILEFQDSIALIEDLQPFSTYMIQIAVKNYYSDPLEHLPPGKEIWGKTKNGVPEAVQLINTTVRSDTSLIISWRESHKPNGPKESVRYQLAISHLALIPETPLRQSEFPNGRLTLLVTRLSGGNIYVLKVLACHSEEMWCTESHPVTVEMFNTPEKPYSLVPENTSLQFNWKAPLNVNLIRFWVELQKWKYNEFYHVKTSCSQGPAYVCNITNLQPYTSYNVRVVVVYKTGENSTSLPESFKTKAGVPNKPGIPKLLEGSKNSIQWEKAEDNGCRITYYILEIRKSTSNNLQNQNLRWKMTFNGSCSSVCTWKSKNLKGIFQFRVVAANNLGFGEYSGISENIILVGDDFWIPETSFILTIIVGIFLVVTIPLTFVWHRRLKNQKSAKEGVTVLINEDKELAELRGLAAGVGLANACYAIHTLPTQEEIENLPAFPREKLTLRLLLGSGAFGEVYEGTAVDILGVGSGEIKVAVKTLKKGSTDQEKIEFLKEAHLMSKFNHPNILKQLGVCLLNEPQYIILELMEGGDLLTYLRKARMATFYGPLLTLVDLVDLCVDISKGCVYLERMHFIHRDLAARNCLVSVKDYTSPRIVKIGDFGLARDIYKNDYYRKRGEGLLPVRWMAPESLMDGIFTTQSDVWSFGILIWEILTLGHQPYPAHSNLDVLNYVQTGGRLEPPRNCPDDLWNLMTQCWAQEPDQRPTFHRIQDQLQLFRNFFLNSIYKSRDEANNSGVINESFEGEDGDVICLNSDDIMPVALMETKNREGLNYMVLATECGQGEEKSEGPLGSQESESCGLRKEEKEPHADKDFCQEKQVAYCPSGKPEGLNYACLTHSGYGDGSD

Take `CC(C)(O)[C@H]1Nc2ccn3ncc(c3n2)C(=O)NCCOc2ccc(F)cc21` [Compound 24, (13S)-11-fluoro-13-(2-hydroxypropan-2-yl)-6,7,13,14-tetrahydro-1,15-ethenopyrazolo[4,3-f][1,4,8,10]benzoxatriazacyclotridecin-4(5H)-one]: the GI50 on CD74-ROS1 Ba/F3 was 8 nM; at EML4-ALK Ba/F3, 475 nM. The IC50 was found to be 264 nM in test [1], 5 nM in test [2] and 1320 nM in test [3].

Source of the values: patent US11008337B2, “Chiral diaryl macrocycles as modulators of protein kinases” (Turning Point Therapeutics, Inc., priority 2015, dated 2021).
